Key:
Format in all cases: in vivo, human
[1] = system: patients with reduced kidney function (eGFR<90 mL/min/1.73 m^2) and diabetes mellitus; experiment: Post-hoc ANCHOR analysis, reduced kidney function and diabetes mellitus (Example 5); conditions: 4 g/day
Method: CVD-related (e.g., atherogenic) parameters were analyzed in a post-hoc study of 198 patients from the multi-center, placebo-controlled, randomized double-blind, 12-week study described in Example 1. These 198 patients have reduced kidney function (e.g., eGFR<90 mL/min/1.73 m^2 for ≥3 months) and diabetes mellitus.
98 patients were randomized to E-EPA and 100 patients were randomized to placebo. In total, atherogenic parameters were analyzed in all 198 patients, 56% of which were male and 97% of which were white. The mean age of the 198 patients was 63 years old.
The primary objective of this post-hoc study was to determine if and how 4 g of daily of >96% E-EPA, compared to placebo, affects patients with reduced kidney function, diabetes mellitus, and high triglyceride levels. The secondary objective was to determine if and how 4 g daily >96% E-EPA, compared to placebo, affected CVD-related parameters in patients having a high risk for CVD and fasting TG levels 200 mg/dL and <500 mg/dL, despite treatment to LDL-C goal on statin therapy. These CVD-parameters include lipid levels, lipoprotein levels, and inflammatory markers, such as TC, LDL-C, HDL-C, vLDL-C, vLDL-TG, RLP-C, non-HDL-C, Apo B, Apo C-III, Lp-PLA, hsCRP, and ox-LDL, and in plasma and RBC EPA concentration. CVD-parameters were analyzed for median difference in percent change from baseline to week 12 in subjects receiving 4 g/day of E-EPA and those receiving the placebo.
The median difference in lipid/lipoprotein, apolipoprotein, and inflammatory parameters were determined from baseline to week 12 for 4/g day of E-EPA compared to placebo.

[2] = Essential fatty acid parameters in RBC, 6-week AAMI study (Example 2)
Method: A single-center, 6-week, double-blind, randomized, parallel-group, placebo-controlled, dose-ranging pilot study was performed to evaluate the efficacy, tolerability, and safety of >96% E-EPA in subjects with subjective and objective memory impairment according to generally accepted criteria for Age-Associated Memory Impairment (“AAMI”). The primary objective of the study was to determine the effect of >96% E-EPA 1 g, 2 g, and 4 g daily, compared to placebo, on cognitive performance in subjects with AAMI.
Ninety-four subjects were randomized into one of six groups: 1 g E-EPA daily (n=23), 2 g E-EPA daily (n=24), 4 g E-EPA daily (n=24), 1 g placebo daily (n=7), 2 g placebo daily (n=8), and 4 g placebo daily (n=8). E-EPA was provided as 500 mg soft gel capsules containing >96% E-EPA and 0.2% dl-α-tocopherol as an antioxidant. Placebo capsules contained 467 mg of liquid paraffin and 0.2% dl-α-tocopherol. Ninety-one subjects completed the study. Two subjects in the 2 g E-EPA group and one subject in the 2 g placebo group discontinued the study.
Blood samples (10 mL) were collected at Visit 1 (screening) and at Visits 4, 5, and 6. Analysis was performed by MSR Lipid Analysis, Scottish Crop Research Institute, Dundee, UK. The screening sample acted as baseline for the EFA measurements. Lipid was extracted from plasma, serum, and RBC suspensions and converted into fatty acid methyl esters which were analyzed by gas chromatography to give fatty acid profiles as micrograms fatty acid per gram of sample ([…]) and normalized area percent.
RBC and plasma EFA data were collected at baseline, Day 14, 28, and 42 and summarized by visit for each treatment group. Change from baseline and percent change from baseline were also summarized. ANCOVA comparison of E-EPA dose groups and E-EPA versus placebo was performed.

[3] = system: subjects with Age-Associated Memory Impairment; experiment: Safety and tolerability, 6-week AAMI study (Example 2)
Method: Ninety-four subjects were randomized into one of six groups: 1 g E-EPA daily (n=23), 2 g E-EPA daily (n=24), 4 g E-EPA daily (n=24), 1 g placebo daily (n=7), 2 g placebo daily (n=8), and 4 g placebo daily (n=8).
All randomized subjects that received at least 1 dose of study medication were included in the Safety Population.
Safety evaluations were based on the safety population. Safety and tolerability were assessed in terms of AEs, vital signs, 12-lead ECG, clinical laboratory data, medical history, and study drug compliance. Safety and tolerability data were presented by treatment group.

For `CC/C=C\C/C=C\C/C=C\C/C=C\C/C=C\CCCC(=O)OCC` [E-EPA, ethyl eicosapentaenoate], the “albumin after 12 weeks” value ([1]; after 12 weeks) was 4.5 g/dL, the “serum creatinine after 12 weeks” value ([1]; after 12 weeks) was 0.9 mg/dL and the albumin before treatment ([1]; before the 12 weeks) was 4.5 g/dL. For the same molecule, the eGFR before treatment ([1]; before the 12 weeks) was 75.4 mL/min/1.73 m^2, the “serum creatinine before treatment” value ([1]; before the 12 weeks) was 0.9 mg/dL and the “AA Mean change from Baseline, Mean (SD)” value ([2]; 1 g daily, Day 14) was −8.1 (21.95) μg/g. The “DGLA Mean change from Baseline, Mean (SD)” value (shortened to “DGLA Mean change … (SD)”) ([2]; 1 g daily, Day 14) was −2.7 (3.82) μg/g, the “DHA Mean change from Baseline, Mean (SD)” value ([2]; 1 g daily, Day 14) was −4.6 (9.76) μg/g and the “EPA/AA Mean change from Baseline, Mean (SD)” value (shortened to “EPA/AA Mean change … (SD)”) ([2]; 1 g daily, Day 14) was 0.1 (0.04). The “AA Mean change from Baseline, Mean (SD)” value ([2]; 1 g daily, Day 28) was −17.0 (20.69) μg/g, the “DGLA Mean change … (SD)” value ([2]; 1 g daily, Day 28) was −3.8 (3.31) μg/g and the “DHA Mean change from Baseline, Mean (SD)” value ([2]; 1 g daily, Day 28) was −6.4 (11.57) μg/g. For the same molecule, the “EPA/AA Mean change … (SD)” value ([2]; 1 g daily, Day 28) was 0.1 (0.05), the “DGLA Mean change … (SD)” value ([2]; 1 g daily, Day 42) was −3.5 (4.51) μg/g and the “DHA Mean change from Baseline, Mean (SD)” value ([2]; 1 g daily, Day 42) was −7.0 (12.20) μg/g. The “EPA/AA Mean change … (SD)” value ([2]; 1 g daily, Day 42) was 0.1 (0.06), the “DGLA Baseline Mean (SD)” value ([2]; 1 g daily) was 23.0 (5.19) μg/g and the “EPA/AA Baseline Mean (SD)” value ([2]; 1 g daily) was 0.1 (0.07). The “AA LS Mean, 1 g versus 4 g” value ([2]; 1 g versus 4 g) was 8.4 µg/g, the “DGLA LS Mean, 1 g versus 4 g” value ([2]; 1 g versus 4 g) was 1.5 µg/g and the “DHA LS Mean, 1 g versus 4 g” value ([2]; 1 g versus 4 g) was 1.0 µg/g. For the same molecule, the “EPA/AA LS Mean, 1 g versus 4 g” value ([2]; 1 g versus 4 g) was −0.18, the “AA Mean change from Baseline, Mean (SD)” value ([2]; 2 g daily, Day 14) was −3.1 (25.84) μg/g and the “DGLA Mean change … (SD)” value ([2]; 2 g daily, Day 14) was −2.6 (3.54) μg/g. For the same molecule, the “DHA Mean change from Baseline, Mean (SD)” value ([2]; 2 g daily, Day 14) was −2.0 (9.46) μg/g, the “EPA/AA Mean change … (SD)” value ([2]; 2 g daily, Day 14) was 0.2 (0.04) and the “DGLA Mean change … (SD)” value ([2]; 2 g daily, Day 28) was −4.5 (3.58) μg/g. For the same molecule, the “DHA Mean change from Baseline, Mean (SD)” value ([2]; 2 g daily, Day 28) was −6.2 (9.34) μg/g, the “EPA/AA Mean change … (SD)” value ([2]; 2 g daily, Day 28) was 0.02 (0.06) and the “DGLA Mean change … (SD)” value ([2]; 2 g daily, Day 42) was −5.3 (3.65) μg/g. The “DHA Mean change from Baseline, Mean (SD)” value ([2]; 2 g daily, Day 42) was −6.3 (9.42) μg/g, the “EPA/AA Mean change … (SD)” value ([2]; 2 g daily, Day 42) was 0.3 (0.06) and the “DGLA Baseline Mean (SD)” value ([2]; 2 g daily) was 23.0 (5.76) μg/g. For the same molecule, the “EPA/AA Baseline Mean (SD)” value ([2]; 2 g daily) was 0.1 (0.06), the “AA LS Mean, 2 g versus 4 g” value ([2]; 2 g versus 4 g) was 9.8 µg/g and the “DGLA LS Mean, 2 g versus 4 g” value ([2]; 2 g versus 4 g) was 1.5 µg/g. For the same molecule, the “DHA LS Mean, 2 g versus 4 g” value ([2]; 2 g versus 4 g) was 1.0 µg/g, the “EPA/AA LS Mean, 2 g versus 4 g” value ([2]; 2 g versus 4 g) was −0.11 and the “DGLA Mean change … (SD)” value ([2]; 4 g daily, Day 14) was −5.3 (4.10) μg/g. For the same molecule, the “DHA Mean change from Baseline, Mean (SD)” value ([2]; 4 g daily, Day 14) was −6.9 (9.13) μg/g, the “EPA/AA Mean change … (SD)” value ([2]; 4 g daily, Day 14) was 0.3 (0.07) and the “DGLA Mean change … (SD)” value ([2]; 4 g daily, Day 28) was −7.1 (4.63) μg/g. For the same molecule, the “DHA Mean change from Baseline, Mean (SD)” value ([2]; 4 g daily, Day 28) was −8.7 (11.63) μg/g, the “EPA/AA Mean change … (SD)” value ([2]; 4 g daily, Day 28) was 0.4 (0.11) and the “DGLA Mean change … (SD)” value ([2]; 4 g daily, Day 42) was −8.0 (4.98) μg/g. The “EPA/AA Mean change … (SD)” value ([2]; 4 g daily, Day 42) was 0.4 (0.14), the “DGLA Baseline Mean (SD)” value ([2]; 4 g daily) was 24.0 (5.77) μg/g and the “EPA/AA Baseline Mean (SD)” value ([2]; 4 g daily) was 0.1 (0.04). For the same molecule, the “subjects with nausea Possibly Related to the study drug” value (“subjects with nausea Possibly Related” for short) ([3]; 1 g cohort) was “two”, the “nausea Probably Related to the study drug” value ([3]; 1 g, one subject) was “experienced nausea that was Probably Related to the study drug” and the “subjects with nausea Possibly Related” value ([3]; 2 g cohort) was “one”. For the same molecule, the SAE reported ([3]; 2 g treatment group) was “One SAE”, the “subjects discontinued due to TEAEs” value ([3]; 2 g treatment group) was 2 subjects and the “relatedness of the SAE (worsening epigastric chest pain)” value ([3]; 2 g, one subject) was “unrelated to the study drug”. The “subjects with nausea Possibly Related” value ([3]; 4 g cohort) was “two”, the “diarrhea Probably Related to the study drug” value ([3]; 4 g, one subject) was “experienced diarrhea that was Probably Related to the study drug” and the “TEAEs Definitely Related to the study drug” value ([3]; all groups) was “No TEAEs were Definitely Related”.

— US10966951B2, “Compositions and methods for lowering triglycerides in a subject having reduced kidney function” (Amarin Pharmaceuticals Ireland Limited, priority 2017, dated 2021)
